Assay [1] has as its target Nonstructural protein 1 (Influenza A virus, UniProt Q194T2). Format: functional, Influenza A virus (A/California/07/2009(H1N1)).
Assay [2] deals with Streptococcus. Put plainly: Group A Streptococcus viability loss, dose response, counter-screen for streptokinase expression inhibitor project, luminescence, BacTiterGlo (AID 1915).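 Note: potency for reduction of bacterial viability or growth.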 The class given is functional, organism-based. Background: The purpose of a counterscreen is to sort out artefacts and off-target activity.
Assay [3] has as its system Streptococcus sp. 'group A'. The assay is described as follows: growth inhibition of control SK(-) GAS strain, dose response, counter-screen for streptokinase expression inhibitor project, luminescence, kanamycin, BacTiterGlo, confirmation (AID 1900). The class given is functional, organism-based.
In assay [4] the target is NACHT, LRR and PYD domains-containing protein 3 (Homo sapiens, UniProt Q96P20). The assay is described as follows: NALP3 inhibitors in yeast, dose response, luminescent (AID 488799). The class given is functional.
Assay [5] has as its target T1, Intestinal-type alkaline phosphatase (Homo sapiens, UniProt P09923). Put plainly: human intestinal alkaline phosphatase activators, dose response, biochemical, luminescence, uHTS hits (AID 463120). Format: functional.
Assay [6] deals with T1, Intestinal-type alkaline phosphatase. Put plainly: human IAP activators, dose response, biochemical, luminescent, uHTS hits, set 2 (AID 488817).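 Note: potency of activators that raise enzyme activity.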 Format: functional.
The target in assay [7] is Intestinal-type alkaline phosphatase (Mus musculus, UniProt P24822). Put plainly: PubChem AID 488875. Format: functional.
For assay [8], the target named is T2, Alkaline phosphatase, tissue-nonspecific isozyme (Homo sapiens, UniProt P05186).
T2 sequence (P05186 whole entry): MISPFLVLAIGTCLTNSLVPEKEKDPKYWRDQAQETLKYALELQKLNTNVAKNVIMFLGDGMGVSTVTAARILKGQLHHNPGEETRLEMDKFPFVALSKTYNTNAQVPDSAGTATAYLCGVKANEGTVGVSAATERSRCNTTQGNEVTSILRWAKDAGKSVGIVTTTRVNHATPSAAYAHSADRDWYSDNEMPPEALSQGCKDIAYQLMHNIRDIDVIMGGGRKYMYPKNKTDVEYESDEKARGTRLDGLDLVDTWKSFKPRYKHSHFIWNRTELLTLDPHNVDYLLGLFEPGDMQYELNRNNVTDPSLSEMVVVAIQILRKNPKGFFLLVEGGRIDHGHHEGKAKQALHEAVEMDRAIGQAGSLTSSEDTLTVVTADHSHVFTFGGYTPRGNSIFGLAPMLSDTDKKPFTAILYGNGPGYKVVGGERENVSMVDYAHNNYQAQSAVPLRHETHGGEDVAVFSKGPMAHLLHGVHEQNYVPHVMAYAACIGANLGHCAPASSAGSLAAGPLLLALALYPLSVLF
The assay is described as follows: TNAP enzyme activators, dose response, selectivity assay for human IAP activator project, biochemical, TNAP isozyme, human IAP uHTS hits (AID 488886).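 Note: potency of compounds raising TNAP activity as a selectivity check on IAP activators.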 The class given is functional.

The target in assay [9] is Caspase-7 (Homo sapiens, UniProt P55210). The assay is described as follows: procaspase-7 activators, dose response, dual procaspase-3/-7 activator project, biochemical, absorbance, human (AID 504330).
For assay [10], the target named is T3, Caspase-3 (Homo sapiens, UniProt P42574).
T3 sequence (P42574 whole entry): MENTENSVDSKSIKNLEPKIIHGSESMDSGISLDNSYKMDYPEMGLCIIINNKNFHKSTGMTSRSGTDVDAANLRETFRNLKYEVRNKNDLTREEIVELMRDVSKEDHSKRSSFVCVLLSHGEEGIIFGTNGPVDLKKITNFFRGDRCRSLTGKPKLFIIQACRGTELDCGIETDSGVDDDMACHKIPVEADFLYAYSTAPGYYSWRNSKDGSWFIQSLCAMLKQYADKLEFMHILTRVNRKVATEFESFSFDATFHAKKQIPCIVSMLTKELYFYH
The assay is described as follows: procaspase-3 activation potency of dual hits, dose response, counter-screen for dual procaspase-3/7 activator project, biochemical, absorbance, PC-3 D3A mutant (AID 504328).

Assay [11] concerns the target T4, Voltage-gated N-type calcium channel alpha-1B subunit/Amyloid beta A4 precursor protein-binding family A member 1 (Homo sapiens, UniProt Q00975+Q02410). The class given is protein assay.
Assay [12] deals with Eukaryotic translation initiation factor 4E (Mus musculus, UniProt P63073). The assay is described as follows: eIF4E–eIF4G protein interaction inhibitors, dose response, biochemical, TR-FRET (AID 855).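 Note: potency for disrupting eIF4E binding to eIF4GI seen as loss of FRET.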 The class given is functional. (Time-resolved FRET reads energy transfer from a long-lived donor to a nearby acceptor.)
Assay [13] has as its target T4, Voltage-gated N-type calcium channel alpha-1B subunit/Amyloid beta A4 precursor protein-binding family A member 1. Format: protein assay. This is another data set of the same source.
For assay [14], the target named is Prothrombin (Bos taurus, UniProt P00735). The assay is described as follows: thrombin inhibition, dose response, biochemical, fluorescence polarization, uHTS hits (AID 602369). The class given is functional. In general terms: Polarisation of emitted light reports the rotation of a fluorescent probe.
Assay [15] addresses 72 kDa type IV collagenase (Homo sapiens, UniProt P08253). The assay is described as follows: Dose Response validation of uHTS RPN11 inhibitor hits using a MMP-2 Fluorescence assay. Format: functional.
The target of assay [16] is G-protein coupled receptor 35 (Homo sapiens, UniProt Q9HC97). The assay is described as follows: GPR35 antagonists blocking zaprinast-driven arrestin recruitment, primary screen, imaging, U2OS, beta-arrestin-GFP, zaprinast agonist (AID 2058).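 Note: antagonist potency meaning inhibition of agonist-induced arrestin redistribution.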 The class given is functional.
Chain of G-protein coupled receptor 35 (Q9HC97 whole entry): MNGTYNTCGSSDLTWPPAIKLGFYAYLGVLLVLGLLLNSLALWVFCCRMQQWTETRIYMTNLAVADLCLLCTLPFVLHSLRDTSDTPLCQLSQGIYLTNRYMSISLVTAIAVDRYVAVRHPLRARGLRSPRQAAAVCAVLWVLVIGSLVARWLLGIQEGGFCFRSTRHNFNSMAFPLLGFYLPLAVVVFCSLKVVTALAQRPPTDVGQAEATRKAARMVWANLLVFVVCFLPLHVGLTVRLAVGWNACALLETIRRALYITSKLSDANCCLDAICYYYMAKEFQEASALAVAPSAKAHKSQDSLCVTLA
In assay [17] the target is 26S proteasome non-ATPase regulatory subunit 14 (Homo sapiens, UniProt O00487). Put plainly: inhibition of proteasome subunit RPN11 – biochemical, fluorescence polarization, uHTS hits, confirmation (AID 602368). The class given is functional.
Chain of 26S proteasome non-ATPase regulatory subunit 14 (O00487 whole entry): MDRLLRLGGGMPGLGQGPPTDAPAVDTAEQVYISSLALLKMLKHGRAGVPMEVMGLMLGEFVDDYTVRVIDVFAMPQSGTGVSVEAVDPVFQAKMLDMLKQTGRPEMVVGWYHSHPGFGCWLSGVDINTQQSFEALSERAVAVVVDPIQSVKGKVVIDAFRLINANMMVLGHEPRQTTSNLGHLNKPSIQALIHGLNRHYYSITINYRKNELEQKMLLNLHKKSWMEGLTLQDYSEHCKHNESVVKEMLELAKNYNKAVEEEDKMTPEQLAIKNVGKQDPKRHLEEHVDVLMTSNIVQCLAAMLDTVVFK
Assay [18] addresses Induced myeloid leukemia cell differentiation protein Mcl-1 (Homo sapiens, UniProt Q07820). Format: functional.
In assay [19] the target is Neuropeptides B/W receptor type 1 (Homo sapiens, UniProt P48145). Put plainly: GPR7 antagonist potency, late-stage follow-up, cell-based, fluorescence, dose response (AID 463251). Format: functional.
Chain of Neuropeptides B/W receptor type 1 (P48145 whole entry): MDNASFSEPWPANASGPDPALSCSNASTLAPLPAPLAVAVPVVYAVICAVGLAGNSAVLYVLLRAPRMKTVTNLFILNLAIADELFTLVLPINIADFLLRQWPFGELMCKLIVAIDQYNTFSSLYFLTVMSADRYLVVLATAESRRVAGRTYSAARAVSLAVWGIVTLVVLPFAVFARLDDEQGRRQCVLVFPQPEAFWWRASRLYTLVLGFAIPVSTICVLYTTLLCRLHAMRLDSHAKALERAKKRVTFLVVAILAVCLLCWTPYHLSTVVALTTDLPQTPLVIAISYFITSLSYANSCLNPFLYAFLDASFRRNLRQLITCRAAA
In assay [20] the target is Melanin-concentrating hormone receptor 1 (Homo sapiens, UniProt Q99705). The assay is described as follows: Late-stage fluorescence-based counterscreen for antagonists of the G-protein coupled receptor 7 (GPR7): cell-based dose response assay to identify antagonists of the melanin-concentrating hormone receptor 1 (MCHR1). [Related pubchem assays (depositor defined):AID1861, AID1880, AID1952, AID2148, AID2251, AID2257, AID485339]. Format: functional.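 Note: stimulated with 30 nM MCH peptide agonist.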

The source made the active and inactive calls. Where only a bound is given, the exact number is not on record here.

T1 sequence (P09923 whole entry): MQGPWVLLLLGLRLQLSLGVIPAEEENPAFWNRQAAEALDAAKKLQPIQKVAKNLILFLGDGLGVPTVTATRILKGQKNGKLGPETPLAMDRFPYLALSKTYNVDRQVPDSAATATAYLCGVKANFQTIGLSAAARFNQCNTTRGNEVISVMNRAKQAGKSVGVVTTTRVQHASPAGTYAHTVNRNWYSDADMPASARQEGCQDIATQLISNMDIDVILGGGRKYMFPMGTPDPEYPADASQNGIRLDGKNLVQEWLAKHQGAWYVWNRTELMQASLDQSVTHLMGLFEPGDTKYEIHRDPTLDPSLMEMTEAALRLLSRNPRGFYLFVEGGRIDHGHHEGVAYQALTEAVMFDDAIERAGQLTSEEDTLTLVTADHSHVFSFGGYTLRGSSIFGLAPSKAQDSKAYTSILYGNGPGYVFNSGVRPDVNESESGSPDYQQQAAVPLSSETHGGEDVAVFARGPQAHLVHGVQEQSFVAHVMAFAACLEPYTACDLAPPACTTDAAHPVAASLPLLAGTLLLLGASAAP
T4 sequence (Q00975 whole entry): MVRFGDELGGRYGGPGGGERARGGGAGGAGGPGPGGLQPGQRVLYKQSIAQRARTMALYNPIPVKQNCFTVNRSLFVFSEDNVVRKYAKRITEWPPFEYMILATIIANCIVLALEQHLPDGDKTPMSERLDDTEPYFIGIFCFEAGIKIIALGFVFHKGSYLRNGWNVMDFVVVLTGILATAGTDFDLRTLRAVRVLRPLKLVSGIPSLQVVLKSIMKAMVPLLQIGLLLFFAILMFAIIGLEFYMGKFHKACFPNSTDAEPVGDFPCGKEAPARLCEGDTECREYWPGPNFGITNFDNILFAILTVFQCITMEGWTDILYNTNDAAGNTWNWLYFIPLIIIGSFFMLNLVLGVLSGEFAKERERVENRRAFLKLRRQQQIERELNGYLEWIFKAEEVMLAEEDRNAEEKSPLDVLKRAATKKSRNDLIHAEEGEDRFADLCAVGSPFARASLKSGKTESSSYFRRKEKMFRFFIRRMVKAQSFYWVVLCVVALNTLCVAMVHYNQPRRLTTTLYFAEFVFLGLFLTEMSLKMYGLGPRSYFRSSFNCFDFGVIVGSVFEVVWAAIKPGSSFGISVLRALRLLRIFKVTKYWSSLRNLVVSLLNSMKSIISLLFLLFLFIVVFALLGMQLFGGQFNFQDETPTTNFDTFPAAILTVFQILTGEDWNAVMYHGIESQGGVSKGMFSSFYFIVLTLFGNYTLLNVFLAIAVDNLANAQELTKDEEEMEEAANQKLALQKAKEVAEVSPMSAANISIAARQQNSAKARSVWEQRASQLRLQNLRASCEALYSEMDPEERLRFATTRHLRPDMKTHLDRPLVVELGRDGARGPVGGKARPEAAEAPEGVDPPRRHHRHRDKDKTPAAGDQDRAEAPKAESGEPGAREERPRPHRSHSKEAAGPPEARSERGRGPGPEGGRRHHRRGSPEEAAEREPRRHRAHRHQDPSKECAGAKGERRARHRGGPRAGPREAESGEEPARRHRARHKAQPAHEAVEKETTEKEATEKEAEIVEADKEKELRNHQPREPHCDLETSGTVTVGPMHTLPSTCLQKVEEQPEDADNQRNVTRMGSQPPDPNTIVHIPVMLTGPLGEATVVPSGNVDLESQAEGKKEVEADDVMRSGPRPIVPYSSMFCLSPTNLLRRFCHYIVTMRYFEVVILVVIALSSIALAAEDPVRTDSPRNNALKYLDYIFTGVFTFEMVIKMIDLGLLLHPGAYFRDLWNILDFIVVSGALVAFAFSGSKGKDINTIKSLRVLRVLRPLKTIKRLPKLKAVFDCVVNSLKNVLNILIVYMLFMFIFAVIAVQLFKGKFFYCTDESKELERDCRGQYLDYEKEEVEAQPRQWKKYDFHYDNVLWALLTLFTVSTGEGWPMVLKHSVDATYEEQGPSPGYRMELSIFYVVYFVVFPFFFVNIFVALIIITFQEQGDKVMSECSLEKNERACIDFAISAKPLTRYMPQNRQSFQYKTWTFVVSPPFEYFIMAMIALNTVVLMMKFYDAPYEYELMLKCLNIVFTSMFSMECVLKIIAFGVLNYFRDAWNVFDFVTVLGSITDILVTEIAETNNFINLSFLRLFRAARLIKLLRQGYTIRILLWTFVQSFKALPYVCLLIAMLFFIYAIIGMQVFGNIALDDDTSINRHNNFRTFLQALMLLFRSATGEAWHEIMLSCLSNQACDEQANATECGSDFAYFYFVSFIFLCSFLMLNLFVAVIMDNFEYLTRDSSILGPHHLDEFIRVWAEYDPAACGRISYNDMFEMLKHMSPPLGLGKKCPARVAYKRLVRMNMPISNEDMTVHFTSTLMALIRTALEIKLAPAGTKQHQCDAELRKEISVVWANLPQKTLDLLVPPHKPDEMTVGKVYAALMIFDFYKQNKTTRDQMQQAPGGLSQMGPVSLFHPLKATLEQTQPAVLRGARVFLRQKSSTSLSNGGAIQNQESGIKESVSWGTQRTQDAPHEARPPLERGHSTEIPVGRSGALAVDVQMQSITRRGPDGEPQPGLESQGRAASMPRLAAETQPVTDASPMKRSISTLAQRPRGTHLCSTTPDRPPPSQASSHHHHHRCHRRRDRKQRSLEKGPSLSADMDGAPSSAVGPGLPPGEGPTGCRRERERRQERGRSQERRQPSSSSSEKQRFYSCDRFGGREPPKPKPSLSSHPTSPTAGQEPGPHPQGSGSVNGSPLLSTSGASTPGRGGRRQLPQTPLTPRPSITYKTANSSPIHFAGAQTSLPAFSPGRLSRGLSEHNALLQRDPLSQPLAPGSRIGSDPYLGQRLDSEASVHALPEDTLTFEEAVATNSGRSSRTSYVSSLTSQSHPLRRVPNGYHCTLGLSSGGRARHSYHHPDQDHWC
T4 sequence (Q02410 whole entry): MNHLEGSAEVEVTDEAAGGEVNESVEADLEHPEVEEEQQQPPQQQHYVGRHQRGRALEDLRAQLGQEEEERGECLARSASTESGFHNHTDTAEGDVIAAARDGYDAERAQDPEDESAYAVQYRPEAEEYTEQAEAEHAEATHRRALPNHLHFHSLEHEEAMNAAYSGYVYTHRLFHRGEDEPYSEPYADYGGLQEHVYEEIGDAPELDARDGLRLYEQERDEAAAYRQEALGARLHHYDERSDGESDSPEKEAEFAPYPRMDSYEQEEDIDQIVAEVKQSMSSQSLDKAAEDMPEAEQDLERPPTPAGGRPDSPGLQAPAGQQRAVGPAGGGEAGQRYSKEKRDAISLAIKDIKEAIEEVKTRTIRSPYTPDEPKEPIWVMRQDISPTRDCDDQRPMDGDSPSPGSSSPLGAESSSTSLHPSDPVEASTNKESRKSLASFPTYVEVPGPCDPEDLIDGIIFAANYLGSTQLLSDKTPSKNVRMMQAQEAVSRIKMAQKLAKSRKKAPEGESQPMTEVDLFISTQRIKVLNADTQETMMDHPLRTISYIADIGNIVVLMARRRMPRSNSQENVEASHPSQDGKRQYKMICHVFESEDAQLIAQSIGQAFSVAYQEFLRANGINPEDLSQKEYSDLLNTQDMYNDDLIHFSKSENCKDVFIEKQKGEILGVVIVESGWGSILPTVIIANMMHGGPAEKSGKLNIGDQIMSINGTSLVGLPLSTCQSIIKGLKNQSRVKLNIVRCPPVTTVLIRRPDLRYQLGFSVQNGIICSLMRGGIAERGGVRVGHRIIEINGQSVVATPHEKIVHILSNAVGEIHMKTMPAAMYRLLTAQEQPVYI
Chain of Induced myeloid leukemia cell differentiation protein Mcl-1 (Q07820 whole entry): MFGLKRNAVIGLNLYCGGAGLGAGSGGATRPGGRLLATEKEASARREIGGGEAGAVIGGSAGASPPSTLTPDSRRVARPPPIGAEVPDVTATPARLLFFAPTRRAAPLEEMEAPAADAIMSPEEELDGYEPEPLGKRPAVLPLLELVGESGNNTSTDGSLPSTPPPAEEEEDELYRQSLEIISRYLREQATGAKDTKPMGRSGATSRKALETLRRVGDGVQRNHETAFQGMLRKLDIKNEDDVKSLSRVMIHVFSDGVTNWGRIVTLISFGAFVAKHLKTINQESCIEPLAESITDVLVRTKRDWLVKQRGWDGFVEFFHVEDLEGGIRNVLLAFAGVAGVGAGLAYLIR

As a reminder, the IC50 is the point on the concentration scale where inhibition reaches its midpoint. By EC50 is commonly meant the concentration that produces a half-maximal response. On to `O=C(NC(=S)NNC(=O)c1ccccc1O)c1ccc(F)cc1`, for which the IC50 was 12.2 µM (active) in assay [1] and 7.94 µM (active) in assay [4]. For the same molecule, the EC50 in assay [2] was 7.74 µM (active); in [3], 3.21 µM (active); in assay [5] it was 8.25 µM (active); in assay [6], 12.2 µM (active); in [7] it was > 100 µM (inactive); in assay [8] it was 12.4 µM (active).
On to `COc1ccc2c(c1OC)C(=O)OC2CC(=O)c1ccc(N(C)C)cc1` (stereo not given), for which the EC50 in [9] and in [10] was > 85.3 µM (inactive) throughout.
Take `N=C1/C(=C/c2ccc(-c3cccc(C(=O)O)c3)o2)C(=O)N=C2SC=C(c3ccccc3)N12`: the IC50 in [11] was 13.3 µM (active); in assay [12], 18.1 µM (active); in assay [13], > 50 µM (inactive); in assay [14], 10.2 µM (active); in assay [15] it was 6.29 µM (active); in [16], 1.1 µM (active). For the same molecule, the results for the IC50 in [17] and in assay [18] were 5.82 µM (active) and > 54 µM (active), respectively.
Turning to `Cc1ccc(-n2ncc(Cl)c(Oc3ccc(C(F)(F)F)cc3)c2=O)cc1`, the results for the IC50 in [19] and in assay [20] were 2.2 µM (active) and 5.5 µM (active), respectively.

The record behind these values is ChEMBL document CHEMBL1201862, “PubChem BioAssay data set” (2004).
